Measured values reported in patent publication US20180273538A1, “PYRROLO[2,3-d]PYRIMIDINE DERIVATIVES, A PROCESS FOR THEIR PREPARATION AND PHARMACEUTICAL COMPOSITIONS CONTAINING THEM” (LES LABORATOIRES SERVIER, priority 2015, published 2018).

Experiments:
[1] = biological target: T1, His-TEV-DYRK1A Kinase domain (aa127-485) (Homo sapiens, UniProt Q13627); assay: Kinase ADP assay (ADP Hunter Plus); assay type: biochemical
T1 construct: His-TEV-DYRK1A Kinase domain (aa127-485); His (N); TEV cleavage site (N)

phospho-Ser520-DYRK1A = biological target: T2, phospho-Ser520-DYRK1A (Homo sapiens, UniProt Q13627); assay: Cellular DYRK1A autophosphorylation assay in U2-OS cells; assay type: cell-based; conditions: 5 hours exposure, read-out: IC50 (μM) P-Ser520-Dyrk1A-Cell assay
T2 construct: full-length, wild-type human DYRK1A (NM_001396) with an HA tag; expressed in transfected cells; host or cells: human U2-OS osteosarcoma cells, pcDNA3.1 plasmid

Row | SMILES | IC50 [1] | IC50 (phospho-Ser520-DYRK1A)
1 | Nc1cc(-c2c[nH]c3nc(C#CC4CC4)nc(-c4ccc5c(c4)OCO5)c23)ccn1 [Example 153, 4-[4-(1,3-benzodioxol-5-yl)-2-(cyclopropylethynyl)-7H-pyrrolo[2,3-d]pyrimidin-5-yl]pyridin-2-amine] | 0.011 µM | 0.0146 µM
2 | Cc1nc(NCc2cccc3c2OCO3)c2c(-c3ccnc(N)c3)c[nH]c2n1 [Example 127, 5-(2-aminopyridin-4-yl)-N-(1,3-benzodioxol-4-ylmethyl)-2-methyl-7H-pyrrolo[2,3-d]pyrimidin-4-amine] | 0.011 µM | 0.0169 µM
3 | Nc1cc(-c2c[nH]c3nc(C#CC4CC4)nc(-c4ccc5c(c4)OCO5)c23)cc(N)n1 [Example 154, 4-[4-(1,3-benzodioxol-5-yl)-2-(cyclopropylethynyl)-7H-pyrrolo[2,3-d]pyrimidin-5-yl]pyridine-2,6-diamine] | 0.013 µM | 0.053 µM
4 | Cc1nc(NCc2cccc3c2OCO3)c2c(-c3cc(N)nc(N)c3)c[nH]c2n1 [Example 128, 4-{4-[(1,3-benzodioxol-4-ylmethyl)amino]-2-methyl-7H-pyrrolo[2,3-d]pyrimidin-5-yl}pyridine-2,6-diamine] | 0.009 µM | 0.0093 µM
5 | Cc1nc(N2CCC2c2ccccc2)c2c(-c3ccnc(N)c3)c[nH]c2n1 (stereo not shown) [Example 103, 4-[2-methyl-4-(2-phenylazetidin-1-yl)-7H-pyrrolo[2,3-d]pyrimadin-5-yl]pyridin-2-amine] | 0.694 µM | –
6 | Cc1cc(-c2c[nH]c3nc(C)nc(NCc4ccccc4)c23)ccn1 [Example 43, N-benzyl-2-methyl-5-(2-methylpyridin-4-yl)-7H-pyrrolo[2,3-d]pyrimidin-4-amine] | 0.278 µM | –
7 | Cc1nc(OCCN2CCCC2)c2c(-c3ccncc3)c[nH]c2n1 [Example 12, 2-methyl-5-(pyridin-4-yl)-4-[2-(pyrrolidin-1-yl)ethoxy]-7H-pyrrolo[2,3-d]pyrimidine] | 2.04 µM | –
8 | Cc1nc(OCc2cccnc2)c2c(-c3ccnc(N)c3)c[nH]c2n1 [Example 22, 4-[2-methyl-4-(pyridin-3-ylmethoxy)-7H-pyrrolo[2,3-d]pyrimidin-5-yl]pyridin-2-amine] | 0.018 µM | –

Second part, the molecule after the results:

Row | IC50 [1] | IC50 (phospho-Ser520-DYRK1A) | SMILES
9 | 0.013 µM | 0.0142 µM | Cc1nc(-c2cc3ccccc3s2)c2c(-c3ccnc(N)c3)c[nH]c2n1 [Example 182]
10 | 0.017 µM | 0.119 µM | Cc1nc(C#CC2CC2)c2c(-c3ccnc(N)c3)c[nH]c2n1 [Example 198, 4-[4-(cyclopropylethynyl)-2-methyl-7H-pyrrolo[2,3-d]pyrimidin-5-yl]pyridin-2-amine]
11 | 0.019 µM | 0.15 µM | Cc1nc(-c2cccc(OC(F)(F)F)c2)c2c(-c3ccnc(N)c3)c[nH]c2n1 [Example 181]
12 | 0.019 µM | 0.0325 µM | Nc1cc(-c2c[nH]c3nc(C#CC4CC4)cc(-c4ccc5c(c4)OCO5)c23)ccn1 [Example 219, 4-[4-(1,3-benzodioxol-5-yl)-6-(cyclopropylethynyl)-1H-pyrrolo[2,3-b]pyridin-3-yl]pyridin-2-amine]
13 | 0.019 µM | 0.103 µM | Nc1cc(-c2c[nH]c3nc(C#CC4CC4)cc(-c4ccc5c(c4)OCCO5)c23)ccn1 [Example 215, 4-[6-(cyclopropylethynyl)-4-(2,3-dihydro-1,4-benzodioxin-6-yl)-1H-pyrrolo[2,3-b]pyridin-3-yl]pyridin-2-amine]
14 | 0.015 µM | 0.0289 µM | Nc1cc(-c2c[nH]c3nc(C#CC4CC4)cc(-c4ccc5c(c4)OCO5)c23)cc(N)n1 [Example 218, 4-[4-(1,3-benzodioxol-5-yl)-6-(cyclopropylethynyl)-1H-pyrrolo[2,3-b]pyridin-3-yl]pyridine-2,6-diamine]
15 | 0.006 µM | 0.0443 µM | Cc1nc(-c2cc(F)c3c(c2)OCO3)c2c(-c3ccnc(N)c3)c[nH]c2n1 [Example 191]
16 | 0.144 µM | – | Cc1nc(-c2cccc(OCCN3CCCC3)c2)c2c(-c3ccnc(N)c3)c[nH]c2n1 [Example 202]
17 | 0.009 µM | – | COc1ccccc1C#Cc1nc(C)nc2[nH]cc(-c3ccnc(N)c3)c12 [Example 197]
